Experimental data taken from ChEMBL document CHEMBL3774333, “Identification of SNAIL1 Peptide-Based Irreversible Lysine-Specific Demethylase 1-Selective Inactivators” (J Med Chem, 2016).
The source made the active and inactive calls. The calls are words filed in the database; no cut-off is given here. *1 amine or outer side, *2 acyl side, *3 side chain or, on linkers, in order; H or OH if unused. Where a SMILES comes first, the peptide text is derived from it. [ ]: non-standard residue; d: D form. X2 = CNNCCC[C@H](N[*:1])C(=O)[*:2]

Assays:
[1] = target: T1, Lysine-specific histone demethylase 1A (Homo sapiens, UniProt O60341); assay: Inhibition of LSD1 in human HeLa cells assessed as H3K4me2/H3 ratio at 20 uM after 24 hrs by Western blot analysis in absence of fetal bovine serum; type: cell-based
HeLa [2] = assay: Antiproliferative activity against human HeLa cells assessed as reduction in cell viability at 300 uM treated for 24 hrs measured after 48 hrs by alamar blue assay in absence of fetal bovine serum relative to control; type: functional
HeLa [3] = assay: Antiproliferative activity against human HeLa cells assessed as reduction in cell viability at 100 uM treated for 24 hrs measured after 48 hrs by alamar blue assay in absence of fetal bovine serum; type: functional, cell-based
[4] = target: T1, Lysine-specific histone demethylase 1A; assay: biochemical
Description: Inhibition of full length N-terminal His-tagged human recombinant LSD1 (1 to 852 residues) expressed in Escherichia coli BL21(DE3) cells using H3K4me2 peptide as substrate preincubated for 5 mins followed by substrate addition measured for 30 mins by peroxidase coupled assay

[5] = target: T2, Amine oxidase [flavin-containing] B (Homo sapiens, UniProt P27338); assay: biochemical
T2 sequence (P27338 whole entry): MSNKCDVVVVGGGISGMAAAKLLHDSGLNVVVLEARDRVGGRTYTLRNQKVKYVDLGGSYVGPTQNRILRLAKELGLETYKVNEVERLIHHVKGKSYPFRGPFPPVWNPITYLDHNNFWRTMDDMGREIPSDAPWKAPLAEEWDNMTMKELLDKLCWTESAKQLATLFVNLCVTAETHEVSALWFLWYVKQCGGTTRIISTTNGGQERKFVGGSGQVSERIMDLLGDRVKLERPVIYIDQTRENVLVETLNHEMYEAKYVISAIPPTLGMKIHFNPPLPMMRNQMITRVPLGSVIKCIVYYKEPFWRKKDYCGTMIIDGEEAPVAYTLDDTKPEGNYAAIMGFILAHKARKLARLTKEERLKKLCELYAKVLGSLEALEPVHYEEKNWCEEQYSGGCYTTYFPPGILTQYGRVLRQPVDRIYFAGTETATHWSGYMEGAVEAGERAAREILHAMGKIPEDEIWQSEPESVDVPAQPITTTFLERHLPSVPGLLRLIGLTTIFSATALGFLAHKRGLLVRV
Description: Inhibition of human recombinant MAO-B expressed in baculovirus infected BTI insect cells using (4S)-4,5-dihydro-2-(6-hydroxybenzothiazolyl)-4-thiazolecarboxylic acid as substrate incubated for 60 mins by MAO-Glo assay

[6] = target: T3, Lysine-specific histone demethylase 2 (Homo sapiens, UniProt Q8NB78); assay: biochemical
T3 sequence (Q8NB78 whole entry): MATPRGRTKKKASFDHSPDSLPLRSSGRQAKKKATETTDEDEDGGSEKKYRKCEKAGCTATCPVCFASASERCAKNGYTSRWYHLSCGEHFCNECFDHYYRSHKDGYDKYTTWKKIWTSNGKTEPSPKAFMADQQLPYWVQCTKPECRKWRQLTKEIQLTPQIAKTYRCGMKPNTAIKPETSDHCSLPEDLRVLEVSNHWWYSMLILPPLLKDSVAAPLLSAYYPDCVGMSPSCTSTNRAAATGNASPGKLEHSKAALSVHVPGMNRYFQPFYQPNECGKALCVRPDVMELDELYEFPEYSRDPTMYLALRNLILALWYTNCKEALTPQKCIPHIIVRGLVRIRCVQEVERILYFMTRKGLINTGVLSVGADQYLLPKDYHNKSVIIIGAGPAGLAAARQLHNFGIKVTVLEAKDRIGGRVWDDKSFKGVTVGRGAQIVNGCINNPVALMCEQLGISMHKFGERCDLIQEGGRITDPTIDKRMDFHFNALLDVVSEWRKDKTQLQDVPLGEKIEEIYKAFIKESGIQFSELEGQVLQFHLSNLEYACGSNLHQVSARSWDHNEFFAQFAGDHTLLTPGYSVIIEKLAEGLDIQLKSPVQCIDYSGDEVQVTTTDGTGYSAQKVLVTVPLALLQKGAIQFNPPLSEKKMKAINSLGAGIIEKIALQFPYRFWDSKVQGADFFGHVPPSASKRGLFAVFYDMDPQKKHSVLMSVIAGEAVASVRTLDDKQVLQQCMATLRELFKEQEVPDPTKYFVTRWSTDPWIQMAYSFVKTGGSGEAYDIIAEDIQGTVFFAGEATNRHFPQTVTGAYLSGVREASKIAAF
Description: Inhibition of full length N-terminal His-tagged human LSD2 (1 to 822 residues) expressed in Escherichia coli BL21(DE3) cells using H3K4me2 peptide substrate by MALDI-TOF mass spectrometric analysis

[7] = target: T4, Amine oxidase [flavin-containing] A (Homo sapiens, UniProt P21397); assay: biochemical
T4 sequence (P21397 whole entry): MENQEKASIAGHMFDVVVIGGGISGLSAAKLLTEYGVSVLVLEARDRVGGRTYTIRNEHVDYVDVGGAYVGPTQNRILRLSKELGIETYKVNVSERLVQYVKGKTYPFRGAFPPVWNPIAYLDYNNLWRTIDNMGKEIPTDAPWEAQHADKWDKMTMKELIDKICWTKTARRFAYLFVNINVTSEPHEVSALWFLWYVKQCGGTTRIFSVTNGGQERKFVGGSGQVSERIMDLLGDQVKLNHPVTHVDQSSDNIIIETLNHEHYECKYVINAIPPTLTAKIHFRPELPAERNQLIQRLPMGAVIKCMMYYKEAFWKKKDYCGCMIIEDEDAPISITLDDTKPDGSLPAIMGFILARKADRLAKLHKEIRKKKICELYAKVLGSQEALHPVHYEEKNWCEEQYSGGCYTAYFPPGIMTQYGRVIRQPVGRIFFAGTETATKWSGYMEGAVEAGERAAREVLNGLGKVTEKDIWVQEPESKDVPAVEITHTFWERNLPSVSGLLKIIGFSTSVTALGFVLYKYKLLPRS
Description: Inhibition of human recombinant MAO-A expressed in baculovirus infected BTI insect cells using (4S)-4,5-dihydro-2-(6-hydroxybenzothiazolyl)-4-thiazolecarboxylic acid as substrate incubated for 60 mins by MAO-Glo assay

[8] = target: T1, Lysine-specific histone demethylase 1A; assay: Drug metabolism assessed as LSD1 (unknown origin)-mediated demethylation of compound by measuring (3S,6S,9S,12S)-1-((S)-1-((S)-6-amino-2-((S)-2-((S)-4-amino-2-((S)-1-((S)-3-carboxy-2-((S)-2-((S)-1-((6S,9S,12S,15S,18S,21S,24S)-1,28-diamino-21-(3-guanidinopropyl)-12-(3-hydrazinylpropyl)-9-(hydroxymethyl)-1-imino-15-isobutyl-18-isopropyl-7,10,13,16,19,22-hexaoxo-6-((S)-pyrrolidine-2-carboxamido)-2,8,11,14,17,20,23-heptaazaoctacosanecarbonyl)pyrrolidine-2-carboxamido)-3-hydroxypropanamido)propanoyl)pyrrolidine-2-carboxamido)-4-oxobutanamido)-5-guanidinopentanamido)hexanoyl)pyrrolidin-2-yl)-3-(2-amino-2-oxoethyl)-12-carbamoyl-6-(4-hydroxybenzyl)-9-(hydroxymethyl)-1,4,7,10-tetraoxo-2,5,8,11-tetraazapentadecan-15-oic acid level after 22 hrs by MALDI-TOF mass spectrometric analysis; type: ADME
[9] = target: T5, Lysine-specific demethylase 5A (Homo sapiens, UniProt P29375)
T5 sequence (P29375 whole entry): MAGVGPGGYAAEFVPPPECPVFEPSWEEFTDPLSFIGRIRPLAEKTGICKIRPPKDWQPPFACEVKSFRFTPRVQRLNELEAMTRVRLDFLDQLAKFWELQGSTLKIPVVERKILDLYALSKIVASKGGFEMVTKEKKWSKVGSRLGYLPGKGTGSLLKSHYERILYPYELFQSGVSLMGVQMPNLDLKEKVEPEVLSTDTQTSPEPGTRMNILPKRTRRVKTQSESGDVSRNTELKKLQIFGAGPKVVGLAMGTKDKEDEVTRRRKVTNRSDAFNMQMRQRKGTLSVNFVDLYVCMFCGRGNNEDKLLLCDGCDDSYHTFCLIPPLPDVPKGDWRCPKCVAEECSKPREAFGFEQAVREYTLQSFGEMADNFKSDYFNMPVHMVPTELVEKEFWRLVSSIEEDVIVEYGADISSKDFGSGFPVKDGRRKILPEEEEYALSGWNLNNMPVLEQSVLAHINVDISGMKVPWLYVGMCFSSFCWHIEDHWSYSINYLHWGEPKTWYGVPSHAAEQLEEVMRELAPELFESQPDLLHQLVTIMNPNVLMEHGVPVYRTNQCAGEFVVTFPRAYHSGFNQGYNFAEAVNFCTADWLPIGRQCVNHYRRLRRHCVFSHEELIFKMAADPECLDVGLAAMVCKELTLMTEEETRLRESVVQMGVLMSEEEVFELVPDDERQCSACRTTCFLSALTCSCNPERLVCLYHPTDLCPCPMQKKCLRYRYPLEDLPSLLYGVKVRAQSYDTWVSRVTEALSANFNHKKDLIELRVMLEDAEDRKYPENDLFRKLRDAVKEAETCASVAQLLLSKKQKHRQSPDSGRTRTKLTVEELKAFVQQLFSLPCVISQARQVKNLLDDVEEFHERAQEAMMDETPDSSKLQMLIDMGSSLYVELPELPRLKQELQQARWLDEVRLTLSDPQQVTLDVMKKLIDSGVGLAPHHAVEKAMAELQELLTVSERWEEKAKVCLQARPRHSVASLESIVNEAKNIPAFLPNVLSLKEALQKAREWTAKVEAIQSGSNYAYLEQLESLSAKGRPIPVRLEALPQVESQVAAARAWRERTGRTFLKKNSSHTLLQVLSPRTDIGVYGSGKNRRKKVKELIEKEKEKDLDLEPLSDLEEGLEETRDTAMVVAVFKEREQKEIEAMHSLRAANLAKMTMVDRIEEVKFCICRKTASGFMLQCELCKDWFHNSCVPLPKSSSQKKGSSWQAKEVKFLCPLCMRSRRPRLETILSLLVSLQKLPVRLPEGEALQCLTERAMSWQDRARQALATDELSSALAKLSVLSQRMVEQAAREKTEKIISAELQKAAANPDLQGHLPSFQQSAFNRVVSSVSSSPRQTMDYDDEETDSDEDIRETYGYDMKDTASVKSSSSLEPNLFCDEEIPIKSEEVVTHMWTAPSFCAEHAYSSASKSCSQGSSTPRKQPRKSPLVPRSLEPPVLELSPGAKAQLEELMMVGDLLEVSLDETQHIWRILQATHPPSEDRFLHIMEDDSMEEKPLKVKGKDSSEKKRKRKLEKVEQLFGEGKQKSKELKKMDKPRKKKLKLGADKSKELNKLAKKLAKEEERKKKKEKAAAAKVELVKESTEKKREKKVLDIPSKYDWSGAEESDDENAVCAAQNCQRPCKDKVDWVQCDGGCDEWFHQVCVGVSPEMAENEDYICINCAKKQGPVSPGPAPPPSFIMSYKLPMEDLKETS
Description: Inhibition of JARID1A (unknown origin) using H3K4me3 peptide substrate preincubated for 5 mins followed by substrate addition by MALDI-TOF mass spectrometric analysis

[10] = target: T5, Lysine-specific demethylase 5A; assay: Inhibition of JARID1A in human HeLa cells assessed as H3K4me3/H3 ratio at 10 uM after 24 hrs by Western blot analysis in absence of fetal bovine serum; type: cell-based
[11] = target: T6, Lysine-specific histone demethylase 2 (Homo sapiens) (UniProt Q8NB78); assay: Inhibition of LSD2 in human HeLa cells assessed as H3K4me1/H3 ratio at 20 uM after 24 hrs by Western blot analysis in absence of fetal bovine serum; type: cell-based
T6 sequence (whole entry): T3 sequence (Q8NB78 whole entry)

[12] = target: T1, Lysine-specific histone demethylase 1A; assay: Inhibition of LSD1 in human HeLa cells assessed as H3K4me2/H3 ratio at 5 uM after 24 hrs by Western blot analysis in absence of fetal bovine serum; type: cell-based
Homo sapiens [13] = species on record: Homo sapiens
[14] = target: T1, Lysine-specific histone demethylase 1A; assay: Inhibition of LSD1 in human HeLa cells assessed as increase in H3K4me2 level after 24 hrs by Western blot analysis in absence of fetal bovine serum; type: cell-based
[15] = target: T5, Lysine-specific demethylase 5A; assay: Inhibition of JARID1A in human HeLa cells assessed as H3K4me3/H3 ratio at 20 uM after 24 hrs by Western blot analysis in absence of fetal bovine serum; type: cell-based
[16] = target: T5, Lysine-specific demethylase 5A; assay: Inhibition of JARID1A in human HeLa cells assessed as H3K4me3/H3 ratio at 5 uM after 24 hrs by Western blot analysis in absence of fetal bovine serum; type: cell-based
HeLa [17] = assay: Antiproliferative activity against human HeLa cells assessed as reduction in cell viability at 25 to 100 uM treated for 24 hrs measured after 48 hrs by alamar blue assay in absence of fetal bovine serum; type: functional, cell-based
[18] = target: T1, Lysine-specific histone demethylase 1A; assay: Inhibition of LSD1 in human HeLa cells assessed as H3K4me2/H3 ratio at 10 uM after 24 hrs by Western blot analysis in absence of fetal bovine serum; type: cell-based
[19] = target: T6, Lysine-specific histone demethylase 2 (Homo sapiens); assay: Inhibition of LSD2 in human HeLa cells assessed as H3K4me1/H3 ratio at 5 uM after 24 hrs by Western blot analysis in absence of fetal bovine serum; type: cell-based
[20] = target: T6, Lysine-specific histone demethylase 2 (Homo sapiens); assay: Inhibition of LSD2 in human HeLa cells assessed as H3K4me1/H3 ratio at 10 uM after 24 hrs by Western blot analysis in absence of fetal bovine serum; type: cell-based
Homo sapiens [21] = species on record: Homo sapiens; remark: listed apart in the source
Homo sapiens [22] = species on record: Homo sapiens; remark: listed apart in the source
Homo sapiens [23] = species on record: Homo sapiens; remark: listed apart in the source
[24] = target: T1, Lysine-specific histone demethylase 1A; conditions: 22 h
[25] = target: T1, Lysine-specific histone demethylase 1A; assay: Drug metabolism assessed as LSD1 (unknown origin)-mediated compound-FAD adduct formation after 22 hrs by MALDI-TOF mass spectrometric analysis in presence of excess of H3K4me2 substrate peptide; type: ADME
[26] = target: T1, Lysine-specific histone demethylase 1A; assay: Irreversible inhibition of LSD1 (unknown origin) using H3K4me2 peptide substrate assessed as compound-FAD adduct formation after 22 hrs by MALDI-TOF mass spectrometric analysis
[27] = target: T1, Lysine-specific histone demethylase 1A; assay: Time dependent irreversible inhibition of human LSD1 using H3K4me2 peptide as substrate at 0.1 to 6.4 uM incubated for 5 mins by fluorometric assay

O=C(O)c1ccc(CN2CCC(CN[C@H]3C[C@@H]3c3ccccc3)CC2)cc1
Ratio [1]: 2.03 | Activity (HeLa [2]): 9.96% | Activity (HeLa [3]): inactive | IC50 [4]: 0.61 µM

CNNCCC[C@H](NC(=O)[C@H](CO)NC(=O)[C@H](CCCNC(=N)N)NC(=O)[C@@H]1CCCN1)C(=O)N[C@@H](CC(C)C)C(=O)N[C@H](C(=O)N[C@@H](CCCNC(=N)N)C(=O)N[C@@H](CCCCN)C(=O)N1CCC[C@H]1C(=O)N[C@@H](CO)C(=O)N[C@@H](CC(=O)O)C(=O)N1CCC[C@H]1C(=O)N[C@@H](CC(N)=O)C(=O)N[C@@H](CCCNC(=N)N)C(=O)N[C@@H](CCCCN)C(=O)N1CCC[C@H]1C(=O)N[C@@H](CC(N)=O)C(=O)N[C@@H](Cc1ccc(O)cc1)C(=O)N[C@@H](CO)C(=O)N[C@@H](CCC(N)=O)C(N)=O)C(C)C (H-PRS[X2]LVRKPSDPNRKPNYSQ-NH2)
IC50 [5]: > 30 µM | IC50 [6]: > 50 µM | IC50 [7]: > 30 µM | Drug metabolism [8]: metabolite_detected | IC50 [9]: > 50 µM | IC50 [4]: 8.4 µM

CC(C)C[C@H](NC(=O)[C@H](CCCNN)NC(=O)[C@H](CO)NC(=O)[C@@H](CCCNC(=N)N)NC(=O)[C@H]1CCCN1)C(=O)N[C@H](C(=O)N[C@@H](CCCNC(=N)N)C(=O)N[C@@H](CCCCNC(=O)[C@@H](CCCNC(=N)N)NC(=O)[C@@H](CCCNC(=N)N)NC(=O)[C@@H](CCCNC(=N)N)NC(=O)[C@@H](CCCNC(=N)N)NC(=O)[C@@H](CCCNC(=N)N)NC(=O)[C@@H](CCCNC(=N)N)NC(=O)[C@@H](CCCNC(=N)N)NC(=O)[C@@H](N)CCCNC(=N)N)C(=O)N1CCC[C@H]1C(=O)N[C@@H](CO)C(=O)N[C@@H](CC(=O)O)C(=O)N1CCC[C@H]1C(=O)N[C@@H](CC(N)=O)C(=O)N[C@@H](CCCNC(=N)N)C(=O)N[C@@H](CCCCN)C(=O)N1CCC[C@H]1C(=O)N[C@H](CC(N)=O)C(=O)N[C@@H](Cc1ccc(O)cc1)C(=O)N[C@@H](CO)C(=O)N[C@@H](CCC(N)=O)C(N)=O)C(C)C
Ratio [1]: 2.19 | Ratio [10]: 0.95 | IC50 [5]: 29 µM | Ratio [11]: 1.08 | IC50 [6]: 13.2 µM | Ratio [12]: 1.72 | IC50 [7]: > 30 µM | Ratio IC50 (Homo sapiens [13]): 16 | inhibition [14]: Dose-dependent effect | Ratio [15]: 0.98 | Ratio [16]: 1.04 | Activity (HeLa [17]): Active | IC50 [9]: 6.74 µM | Ratio [18]: 1.9 | Ratio [19]: 1.01 | Ratio [20]: 0.98 | Ratio IC50 (Homo sapiens [21]): 94 | Ratio IC50 (Homo sapiens [22]): 23 | IC50 [4]: 0.28 µM | Ratio IC50 (Homo sapiens [23]): > 94 | Drug metabolism [24]: metabolite_detected

CC(C)C[C@H](NC(=O)[C@H](CCCNN)NC(=O)[C@H](CO)NC(=O)[C@H](CCCNC(=N)N)NC(=O)[C@@H]1CCCN1)C(=O)N[C@H](C(=O)N[C@@H](CCCNC(=N)N)C(=O)N[C@@H](CCCCN)C(=O)N1CCC[C@H]1C(=O)N[C@@H](CO)C(=O)N[C@@H](CC(=O)O)C(=O)N1CCC[C@H]1C(=O)N[C@@H](CC(N)=O)C(=O)N[C@@H](CCCNC(=N)N)C(=O)N[C@@H](CCCCN)C(=O)N1CCC[C@H]1C(=O)N[C@@H](CC(N)=O)C(=O)N[C@@H](Cc1ccc(O)cc1)C(=O)N[C@@H](CO)C(=O)N[C@@H](CCC(N)=O)C(N)=O)C(C)C
IC50 [5]: > 30 µM | IC50 [6]: > 50 µM | IC50 [7]: > 30 µM | IC50 [9]: > 50 µM | IC50 [4]: 0.44 µM | Drug metabolism [25]: metabolite_notdetected

CC(C)C[C@@H](NC(=O)[C@@H](CCCNN)NC(=O)[C@@H](CO)NC(=O)[C@H](CCCNC(=N)N)NC(=O)[C@@H]1CCCN1)C(=O)N[C@@H](C(=O)N[C@H](CCCNC(=N)N)C(=O)N[C@H](CCCCN)C(=O)N1CCC[C@@H]1C(=O)N[C@H](CO)C(=O)N[C@H](CC(=O)O)C(=O)N1CCC[C@@H]1C(=O)N[C@H](CC(N)=O)C(=O)N[C@H](CCCNC(=N)N)C(=O)N[C@H](CCCCN)C(=O)N1CCC[C@@H]1C(=O)N[C@@H](CC(N)=O)C(=O)N[C@H](Cc1ccc(O)cc1)C(=O)N[C@H](CO)C(=O)N[C@H](CCC(N)=O)C(N)=O)C(C)C
Ratio [1]: 1.34 | inhibition [26]: Active | TDI [27]: Active
